Values quoted from earlier work, collected in US9353109B2, “Flindersia alkaloids, derivatives and analogs: compositions and methods for producing the same” (UNIVERSITY OF HOUSTON SYSTEM, priority 2012, dated 2016).

system: chloroquine-resistant falciparum strains; settings: at concentrations that do not affect mammalian cells' viability

| Compound | effectiveness toward chloroquine-resistant falciparum strains |
| --- | --- |
| C[C@@H]1CC[C@H]2[C@@H](C)C(=O)O[C@@H]3O[C@@]4(C)CC[C@@H]1[C@]32OO4 [artemisinin, reference compound] | show effectiveness toward chloroquine-resistant falciparum strains |
| CNCCc1c(/C=C/[C@@]2(C)C[C@H](C=C(C)C)c3c(CCNC)c4ccccc4n32)[nH]c2ccccc12 [flinderole A] | show effectiveness toward chloroquine-resistant falciparum strains |
| CNCCc1c(C2C3C(C=C(C)CC3(C)C)c3c(CCNC)c4ccccc4n32)[nH]c2ccccc12 (stereo not shown) [isoborreverine] | show effectiveness toward chloroquine-resistant falciparum strains |
| CC(C)=C[C@H]1C[C@](C)(/C=C/c2[nH]c3ccccc3c2CCN(C)C)n2c1c(CCN(C)C)c1ccccc12 [flinderole B] | show effectiveness toward chloroquine-resistant falciparum strains |
| dimethylisoborreverine | show effectiveness toward chloroquine-resistant falciparum strains |
| CC(C)=C[C@H]1C[C@@](C)(/C=C/c2[nH]c3ccccc3c2CCN(C)C)n2c1c(CCN(C)C)c1ccccc12 [flinderole C] | show effectiveness toward chloroquine-resistant falciparum strains |
| CCN(CC)CCCC(C)Nc1ccnc2cc(Cl)ccc12 (stereo not shown) [chloroquine, reference compound] | show effectiveness toward chloroquine-resistant falciparum strains |
